Assay results from patent US20070107077A1, “Microprojectile bombardment transformation of brassica” (Pioneer Hi-Bred International, Inc., priority 2005, published 2007).
Several values for one entry are separate records, joined by “and”; a condition that tells them apart may be missing. Equal values may be shown once. Where a name gives a salt, the structure may show the parent alone.

Tests used:
Parameters in all cases: species or system Brassica
[1] = tested on: pre-incubated microspores bombarded with PHP22021 and PHP22024; assay: Glyphosate resistant embryo selection in liquid medium NLN-6.5S after bombardment
Procedure: Pre-incubated microspores were used as bombarded materials. Any Brassica line that is capable of regenerating by microspore culture can be used. The microspores were cultured for 1-3 days in NLN-17S at 31.5° C, and then in NLN-10S for 4-5 days at 25° C. The constructs used in the bombardments were PHP18644, PHP21965, PHP22024, PHP22021, and PHP23560 (see Table 9). The constructs can be the full plasmid or the expression cassette only. For example, PHP22024 can be either the expression cassette or the full plasmid. The pre-incubated microspores were filtrated with sieves of pore size of […] to 36 μm. The collected microspores were used for bombardment. The microspores were loaded on a sieve 15 μm or 20 μm on two layers of filter-paper and dried for less than one minute. The microspores and sieves were transferred to osmotic medium that contained B5 components, 1 g/l MES and 0.8-1.6% gelrite, 15-21% sucrose (pH 6.0). The microspores were treated for at least one hour on the osmotic medium before bombardment. The pre-incubated microspores were bombarded with 12.5 ng to 5 μg DNA per preparation, 15-100 μg Au particles per shot, 2.5 M CaCl2, and 650-900 psi rupture disk. […] Resistant embryos were recorded after two to three weeks of culture. […]

[2] = tested on: non-transgenic microspores; assay: Selection kill curve using Geneticin (G418): embryo growth and survival in liquid medium
Text: The objective was to determine the concentration of G418 that kills non-transgenic microspores.
(§1) Prior to this experiment, selection was done on solid medium, not in liquid medium. Using liquid selection for Brassica transgenic cells is novel. Selection in liquid medium is advantageous for at least the following reasons: (a) it allows selection at an early stage, thereby eliminating the need for subsequent transfers of explants, (b) it allows for a cleaner selection because the explants are generally smaller when they are in liquid medium and the liquid allows all the surfaces of the explant to be exposed to the selection agent, (c) it may reduce the frequency of chimeras, and (d) a lower amount of the selection agent is needed therefore reducing the toxicity to the researcher and the environment. The effect of various concentrations of kanamycin on embryo growth in liquid medium was tested. […] Accordingly, it was difficult to discriminate transgenic tissue or embryos from non-transgenic.

non-bombarded embryos = assay: Effect of kanamycin on embryo growth in liquid medium, non-bombarded embryos
Text: as §1

O=C(O)CNCP(=O)(O)O [Glyphosate, glyphosate]
# embryos (abnormal)/plate ([1]; glyphosate 0.2 mM, plasmid PHP22021): 0
selection efficiency, false positives ([1]; selection at 0.2 mM compared with 0.1 mM glyphosate): fewer false positive results

CN[C@@H]1[C@@H](O)[C@@H](O[C@@H]2[C@@H](O)[C@H](O[C@H]3O[C@H]([C@@H](C)O)[C@@H](O)[C@H](O)[C@H]3N)[C@@H](N)C[C@H]2N)OC[C@]1(C)O [G418, G418 disulfate salt]
# Green embryos or with green island ([2]; G418 1.25 mg/l, disulfate salt): 30 (paler) and 28 (paler)
# Green embryos or with green island ([2]; G418 2.5 mg/l, disulfate salt): 14 (light green, smaller size) and 11 (light green, smaller size)
# Green embryos or with green island ([2]; G418 5 mg/l): 0
# Green embryos or with green island ([2]; G418 10 mg/l): 0
concentration sufficient to differentiate transformed cells from untransformed cells (cleaner selection) ([2]; NLN with 6.5% sucrose medium): 5 to 10 mg/L

NC[C@H]1O[C@H](O[C@H]2[C@H](O)[C@@H](O[C@H]3O[C@H](CO)[C@@H](O)[C@H](N)[C@H]3O)[C@H](N)C[C@@H]2N)[C@H](O)[C@@H](O)[C@@H]1O [kanamycin]
concentration sufficient to bleach non-bombarded embryos and inhibit non-bombarded embryo growth (non-bombarded embryos): 10 mg/L
